Test system: not listed separately
Experiment: Mouse pharmacokinetic test
Type: in vivo, ICR mice
Conditions: in vivo, 30 mg/kg, PO-30mpk
Experimental: Formulation preparation: The dosing solutions were prepared on the day of administration.
Six healthy male naive ICR mice weighing 25-30 g were selected and divided into two groups (intravenous and oral groups), with three mice in each group, and administered a single dose. […] Feeding was resumed 4 h after administration. Timing was initiated following intravenous and oral administration. […] The collected whole blood was briefly vortexed twice for mixing, placed on wet ice, and centrifuged at 4°C and 8000 rpm for 5 min within 1 h. The supernatant plasma was collected and stored at -80°C until processing and analysis. Table 3: Pharmacokinetics in mice

AUC(0-inf) | Cmax | half-life | SMILES
447 µg·h/mL | 62.8 µg/mL | 2.2 h | CC(C)(c1ccc(-c2cccc(OCc3ccnc(P(C)(C)=O)n3)c2)cc1)c1cc(Cl)c(OCCCl)c(C#N)c1 [Compound 6]
316 µg·h/mL | 31 µg/mL | 5.4 h | CC(C)(c1ccc(N2CCC(Oc3ccnc(P(C)(C)=O)n3)CC2)cc1)c1cc(Cl)c(OCCCl)c(C#N)c1 [Compound 10]

Same assay, conditions: in vivo, 30 mg/kg, PO-30mpk, read-out: Tmax

Tmax | SMILES
2.7 h | CC(C)(c1ccc(-c2cccc(OCc3ccnc(P(C)(C)=O)n3)c2)cc1)c1cc(Cl)c(OCCCl)c(C#N)c1 [Compound 6]
3.3 h | CC(C)(c1ccc(N2CCC(Oc3ccnc(P(C)(C)=O)n3)CC2)cc1)c1cc(Cl)c(OCCCl)c(C#N)c1 [Compound 10]

Same assay, conditions: plasma, 30 mg/kg, PO-30mpk

SMILES | AUC(0-inf) | Cmax | half-life
CC(C)(c1ccc(-c2ccc(OCc3ccnc(P(C)(C)=O)n3)cc2)cc1)c1cnc2c(cnn2CCCl)c1 [Compound 42] | 422 µg·h/mL | 34.3 µg/mL | 4.42 h

Same assay, conditions: plasma, 30 mg/kg, PO-30mpk, read-out: Tmax

SMILES | Tmax
CC(C)(c1ccc(-c2ccc(OCc3ccnc(P(C)(C)=O)n3)cc2)cc1)c1cnc2c(cnn2CCCl)c1 [Compound 42] | 3.33 h

Same assay, conditions: plasma, po, 30 mg/kg, PO-30mpk

SMILES | AUC(0-inf) | Cmax | half-life
CC(C)(c1ccc(-c2ccc(/C=C/c3ccnc(P(C)(C)=O)n3)cc2)cc1)c1cc(Cl)c(OCCCl)c(C#N)c1 [Compound 228] | 242 µg·h/mL | 14.5 µg/mL | 6 h

Same assay, conditions: plasma, po, 30 mg/kg, PO-30mpk, read-out: Tmax

SMILES | Tmax
CC(C)(c1ccc(-c2ccc(/C=C/c3ccnc(P(C)(C)=O)n3)cc2)cc1)c1cc(Cl)c(OCCCl)c(C#N)c1 [Compound 228] | 4 h

Test system: 22RV1 cells
Experiment: Cell proliferation inhibition assay in 22RV1 cells (CellTiter-Glo, 7 days)
Type: cell-based, human
Conditions: Homo sapiens, 22Rv1, 168 h
Experimental: • 1. The human prostate cancer cell lines 22RV1 and LNCaP were purchased from ATCC. […] The cell concentration was adjusted to an appropriate concentration (determined based on the results of cell density optimization experiments), and the cells were seeded into a 96-well plate. A 100 µL cell suspension was added, resulting in 3000 cells per well. […] On the second day, for 22Rv1 cells, test compounds at different concentrations were added, and the cells were incubated at 37°C in a 5% CO2 incubator for 7 days; for LNCaP cells, test compounds at different concentrations were added first, and after 1 hour of treatment, 0.2 nM DHT was added. The cells were then incubated at 37°C in a 5% CO2 incubator for 7 days. • 4. After the incubation period, a volume of CellTiter-Glo detection reagent equal to the volume of the culture medium was added to each well. The plate was shaken and mixed thoroughly for 5 minutes, then incubated at room temperature for 10 minutes. Readings were taken using a PerkinElmer EnVision microplate reader. • 5.
The IC50 curve was fitted and the IC50 value was calculated using the software GraphPad Prism 8 with the calculation formula XY-analysis/Nonlinear regression (curve fit)/Dose response-Inhibition/log (inhibitor) vs. response-Variable slope (four parameters).

SMILES | IC50
CC(C)(c1ccc(-c2ccc(OCc3ccnc(N4CC(S(=N)(=O)C5CC5)C4)n3)cc2)cc1)c1cc(Cl)c(OCCCl)c(C#N)c1 (racemic) [Compound 295] | 0.33 µM
CC(C)(c1ccc(-c2cnc(OCc3ccnc(N4CC(S(C)(=N)=O)C4)n3)cn2)cc1)c1cc(Cl)c(OCCCl)c(C#N)c1 (racemic) [Compound 323] | 0.57 µM
CC(C)(c1ccc(-c2cnc(OCc3ccnc(N4CC(S(=N)(=O)C5CC5)C4)n3)cn2)cc1)c1cc(Cl)c(OCCCl)c(C#N)c1 (racemic) [Compound 350] | 0.46 µM
CC(C)(c1ccc(-c2ccc(OCc3ccnc(N4CC5(C4)CS(=O)(=O)C5)n3)cc2)cc1)c1cc(Cl)c(OCCCl)c(C#N)c1 [Compound 24] | 1.03 µM
CC(C)(c1ccc(-c2ccc(OCc3ccnc(N4CC(OCCS(C)(=O)=O)C4)n3)cc2)cc1)c1cc(Cl)c(OCCCl)c(C#N)c1 [Compound 160] | 0.23 µM

Same assay, conditions: Homo sapiens, 168 h

SMILES | IC50
CC(C)(c1ccc(-c2ccc(OCc3ccnc(S(C)(=O)=O)n3)cc2)cc1)c1cc(Cl)c(OCCCl)c(C#N)c1 [Compound 1] | 1.07 µM
CC(C)(c1ccc(-c2cccc(OCc3ccnc(S(C)(=O)=O)n3)c2)cc1)c1cc(Cl)c(OCCCl)c(C#N)c1 [Compound 4] | 1.38 µM
CC(C)(c1ccc(-c2ccc(OCc3ccnc(P(C)(C)=O)n3)cn2)cc1)c1cc(Cl)c(OCCCl)c(C#N)c1 [Compound 15] | 1.35 µM
CC(C)(c1ccc(-c2ccc(OCc3ccnc(N=S4(=O)CCCC4)n3)nc2)cc1)c1cc(Cl)c(OCCCl)c(C#N)c1 [Compound 18] | 1.46 µM
CC(C)(c1ccc(-c2ccc(OCc3ccnc(N=S4(=O)CCOCC4)n3)nc2)cc1)c1cc(Cl)c(OCCCl)c(C#N)c1 [Compound 19] | 0.86 µM
CC(C)(c1ccc(-c2ccc(C#Cc3ccnc(N=S4(=O)CCCC4)n3)cc2)cc1)c1cc(Cl)c(OCCCl)c(C#N)c1 [Compound 21] | 0.34 µM
CC(C)(c1ccc(-c2cnc(OCc3ccnc(N4CC5(COC5)C4)n3)nc2)cc1)c1cc(Cl)c(OCCCl)c(C#N)c1 [Compound 35] | 0.84 µM
CC(C)(c1ccc(-c2cnc(OCc3ccnc(N=S4(=O)CCCC4)n3)nc2)cc1)c1cc(Cl)c(OCCCl)c(C#N)c1 [Compound 36] | 1.35 µM
CC(C)(c1ccc(-c2ccc(OCc3ccnc(N=S4(=O)CCOCC4)n3)cc2)cc1)c1cc(Cl)c(OCCCl)c(C#N)c1 [Compound 43] | 0.3 µM
CC(C)(c1ccc(-c2ccc(OCc3ccnc(N4CC5(COC5)C4)n3)cc2)cc1)c1cnc2c(cnn2CCCl)c1 [Compound 45] | 0.99 µM
CC(C)(c1ccc(-c2ccc(OCc3ccnc(N4CC(O)C4)n3)cc2)cc1)c1cc(Cl)c(OCCCl)c(C#N)c1 [Compound 54] | 1.42 µM
CC(C)(c1ccc(-c2ccc(OCC3CCOCC3)cc2)cc1)c1cc(Cl)c(OCCCl)c(C#N)c1 [Compound 74] | 0.29 µM
CC(C)(c1ccc(-c2ccc(OC3CCN(c4ccnc(N5CC6(COC6)C5)n4)CC3)cc2)cc1)c1cc(Cl)c(OCCCl)c(C#N)c1 [Compound 77] | 1.47 µM
CC(C)(c1ccc(-c2ccc(OC3CCN(c4ccnc(N5CC6(C5)CS(=O)(=O)C6)n4)CC3)cc2)cc1)c1cc(Cl)c(OCCCl)c(C#N)c1 [Compound 78] | 0.71 µM
CC(C)(c1ccc(-c2ccc(OCC3CC(CN4CC5(C4)CS(=O)(=O)C5)C3)cc2)cc1)c1cc(Cl)c(OCCCl)c(C#N)c1 (stereo not drawn) [Compound 80] | 0.11 µM
C[S+]([O-])c1nccc(COc2ccc(-c3ccc(C(C)(C)c4cc(Cl)c(OCCCl)c(C#N)c4)cc3)cc2)n1 (stereo not drawn) [Compound 81] | 0.86 µM
CC(C)(c1ccc(-c2ccc(OCc3ccnc(N4CC5(C4)CS(=O)(=O)C5)n3)cn2)cc1)c1cc(Cl)c(OCCCl)c(C#N)c1 [Compound 84] | 1.05 µM
CC(C)(c1ccc(-c2ccc(OCc3ccnc(N=S4(=O)CCNCC4)n3)cn2)cc1)c1cc(Cl)c(OCCCl)c(C#N)c1 [Compound 86] | 0.63 µM
CC1(NS(C)(=O)=O)CN(c2nccc(COc3ccc(-c4ccc(C(C)(C)c5cc(Cl)c(OCCCl)c(C#N)c5)cc4)cc3)n2)C1 [Compound 90] | 1.32 µM
CN(C1CN(c2nccc(COc3ccc(-c4ccc(C(C)(C)c5cc(Cl)c(OCCCl)c(C#N)c5)cc4)cc3)n2)C1)S(C)(=O)=O [Compound 93] | 1.01 µM
CC(C)(c1ccc(-c2ccc(OCc3ccnc(N4CC5(CNC5)C4)n3)cc2)cc1)c1cc(Cl)c(OCCCl)c(C#N)c1 [Compound 104] | 0.92 µM
CC(C)(c1ccc(-c2ccc(OCc3ccnc(N4CC5(C4)CN(S(C)(=O)=O)C5)n3)cc2)cc1)c1cc(Cl)c(OCCCl)c(C#N)c1 [Compound 105] | 0.3 µM
CC(C)(c1ccc(-c2ccc(OCC3CC4(C3)CS(=O)(=O)C4)cc2)cc1)c1cc(Cl)c(OCCCl)c(C#N)c1 [Compound 106] | 0.19 µM
CC(C)(c1ccc(-c2ccc(OCc3ccnc(N4CC5(CC(S(C)(=O)=O)C5)C4)n3)cc2)cc1)c1cc(Cl)c(OCCCl)c(C#N)c1 [Compound 121] | 0.19 µM
CC(C)(c1ccc(-c2ccc(OCc3ccnc(N4CC5(CC(=O)C5)C4)n3)cc2)cc1)c1cc(Cl)c(OCCCl)c(C#N)c1 [Compound 122] | 1.28 µM

Second part, the molecule after the results:

IC50 | SMILES
0.65 µM | CC(C)(c1ccc(-c2ccc(OCc3ccnc(N=S4(=O)CCN(CC(F)(F)F)CC4)n3)cn2)cc1)c1cc(Cl)c(OCCCl)c(C#N)c1 [Compound 139]
0.53 µM | CC(C)(c1ccc(-c2ccc(OC3CC4CCC(C3)N4c3ccnc(P(C)(C)=O)n3)nc2)cc1)c1cc(Cl)c(OCCCl)c(C#N)c1 (stereo not drawn) [Compound 140]
0.9 µM | CC(C)(c1ccc(-c2ccc(OC3CCN(c4ccnc(N5CC(S(C)(=O)=O)C5)n4)CC3)cc2)cc1)c1cc(Cl)c(OCCCl)c(C#N)c1 [Compound 143]
0.74 µM | CC(C)(c1ccc(-c2ccc(OCc3ccnc(C4CNC4)n3)cc2)cc1)c1cc(Cl)c(OCCCl)c(C#N)c1 [Compound 144]
0.77 µM | CC(C)(c1ccc(-c2ccc(OC3CCN(c4ccnc(N5CC(S(C)(=O)=O)C5)n4)CC3)nc2)cc1)c1cc(Cl)c(OCCCl)c(C#N)c1 [Compound 148]
0.33 µM | CC(C)(c1ccc(-c2ccc(OCc3ccnc(P(C)(C)=O)n3)cc2)cc1)c1cc(Cl)c(OCC2CCC2)c(C#N)c1 [Compound 152]
0.78 µM | CC(C)(c1ccc(-c2cc(F)c(OCc3ccnc(N=S4(=O)CCOCC4)n3)cn2)cc1)c1cc(Cl)c(OCCCl)c(C#N)c1 [Compound 153]
0.26 µM | CC(C)(c1ccc(-c2ccc(OCc3ccnc(N=S4(=O)CCOCC4)n3)c(F)n2)cc1)c1cc(Cl)c(OCCCl)c(C#N)c1 [Compound 154]
0.48 µM | CC(C)(c1ccc(-c2ccc(OCc3scnc3P(C)(C)=O)cc2)cc1)c1cc(Cl)c(OCCCl)c(C#N)c1 [Compound 157]
0.39 µM | CC(C)(c1ccc(-c2ccc(OCc3ccnc(N4CC5(CC(O)C5)C4)n3)cc2)cc1)c1cc(Cl)c(OCCCl)c(C#N)c1 [Compound 165]
1.21 µM | COC1CC2(C1)CN(c1nccc(COc3ccc(-c4ccc(C(C)(C)c5cc(Cl)c(OCCCl)c(C#N)c5)cc4)cc3)n1)C2 [Compound 166]
0.36 µM | CC(C)(c1ccc(-c2ccc(OCC3CCOCC3)cn2)cc1)c1cc(Cl)c(OCCCl)c(C#N)c1 [Compound 169]
1.24 µM | CC(C)(c1ccc(-c2ccc(OC[C@@H]3CCOC3)cc2)cc1)c1cc(Cl)c(OCCCl)c(C#N)c1 [Compound 171]
1.23 µM | CC(C)(c1ccc(-c2ccc(OCC3CN(C4CC4)C3)cc2)cc1)c1cc(Cl)c(OCCCl)c(C#N)c1 [Compound 172]
0.4 µM | CC(C)(c1ccc(-c2ccc(OCc3ccnc(P(C)(C)=O)n3)c(C#N)c2)cc1)c1cc(Cl)c(OCCCl)c(C#N)c1 [Compound 173]
0.92 µM | CC(C)(c1ccc(-c2ccc(OCC3CCOCC3)nc2)cc1)c1cc(Cl)c(OCCCl)c(C#N)c1 [Compound 184]
0.63 µM | CC(c1ccccc1)(c1ccc(-c2ccc(OCc3ccnc(P(C)(C)=O)n3)cc2)cc1)c1cc(Cl)c(OCCCl)c(C#N)c1 (stereo not drawn) [Compound 190]

Reference: EP4778922A1, “BICYCLIC COMPOUND, AND PREPARATION METHOD THEREFOR AND PHARMACEUTICAL USE THEREOF” (Shanghai Jeyou Pharmaceutical Co., Ltd., priority 2023, dated 2025)
